Assay results published in PubChem BioAssay (NCI).
Where “and” joins values, the source holds several entries; their conditions need not be identical. Identical values can stand only once.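 Grown in 96-well plates, cells were treated for 48 hours with each compound at five concentrations. Insufficient inhibition: endpoint recorded as highest concentration tested. GI50: concentration for 50% inhibition of growth. TGI: concentration producing complete growth inhibition.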

Legend:
Test in all cases: growth of human tumour cells (NCI), 48 h
[1] = tested on: A549 NSCLC
[2] = tested on: HCC-2998 colon
[3] = tested on: HCT-116 colon
[4] = tested on: HL-60(TB) leukemia
[5] = tested on: HT29 colon
[6] = tested on: NCI-H522 lung
[7] = tested on: OVCAR-8 ovarian
[8] = tested on: SK-OV-3 ovarian
[9] = tested on: SNB-19 CNS
[10] = tested on: U251 CNS

| Compound | GI50 [1] | TGI [1] | GI50 [2] | TGI [2] | GI50 [3] | TGI [3] | GI50 [4] | TGI [4] | GI50 [5] | TGI [5] | GI50 [6] | TGI [6] | GI50 [7] | TGI [7] | GI50 [8] | TGI [8] | GI50 [9] | TGI [9] | GI50 [10] | TGI [10] |
| --- | --- | --- | --- | --- | --- | --- | --- | --- | --- | --- | --- | --- | --- | --- | --- | --- | --- | --- | --- | --- |
| Cc1cc2cc(Oc3ccnc(Nc4cccc(CS(=O)(=O)NCCN(C)C)c4)n3)ccc2[nH]1 | 12 µM | 25.5 µM | 11.6 µM | 25.2 µM | 3.33 µM | 14 µM | 2.24 µM | 6.17 µM | 2960 nM | 10.6 µM | 3690 nM | 14.7 µM | 15.8 µM | 36.1 µM | 14.4 µM | 29.5 µM | 13 µM | 26.1 µM | 5.33 µM | 18.4 µM |
| Cn1c(-c2c(N)n(Cc3ccc(Cl)cc3)c3nc(C#N)c(C#N)nc23)nc2ccccc21 | 5.02 µM | 19.8 µM | 1.08 µM | 3.57 µM | 8.52 µM | > 50 µM | 16.9 µM | > 50 µM |  |  | 2830 nM | 15.6 µM | 5.37 µM | 23.4 µM | 1.89 µM | 5.67 µM | 12.3 µM | 46.5 µM | 3.76 µM | 13 µM |
| CC(=O)C1C(=O)C(=O)N(c2ccc(Cl)cc2C)C1=O (stereo unspecified) |  | > 100 µM |  | > 100 µM |  | > 100 µM |  | > 100 µM |  | > 100 µM |  | > 100 µM |  | > 100 µM |  |  |  | > 100 µM |  | > 100 µM |
| COc1cc2c(c(OC)c1OC)C(=O)c1c-2n(CCCN)c(=O)c2cc([N+](=O)[O-])ccc12 |  |  | 0.299 µM | 0.804 µM | 0.128 µM | 0.274 µM | 4.5 µM | 10.9 µM | 301 nM |  | 5790 nM | 14 µM |  |  | 1.95 µM | 4 µM | 1.5 µM | 5.15 µM |  |  |
| CN1NC(c2ccccc2)=C(C#N)C(=O)CC1c1ccccc1Cl (stereo unspecified) |  | > 100 µM |  | > 100 µM |  | > 100 µM |  | > 100 µM |  | > 100 µM |  | > 100 µM |  |  |  | > 100 µM |  | > 100 µM |  | > 100 µM |
| O=C(CN1C(=O)c2ccccc2C1=O)OC1C=CCCC1 (stereo unspecified) |  | > 100 µM |  | > 100 µM |  | > 100 µM |  | > 100 µM |  |  |  | > 100 µM |  | > 100 µM |  | > 100 µM |  | > 100 µM |  | > 100 µM |
| COc1ccc2c(CCNS(=O)(=O)c3ccccc3)c(C(C)=O)[nH]c2c1[N+](=O)[O-] |  | > 100 µM |  | > 100 µM |  | > 100 µM |  | > 100 µM |  | > 100 µM |  | > 100 µM |  | > 100 µM |  |  |  | > 100 µM |  | > 100 µM |
| COc1ccc2c3c([nH]c2c1[N+](=O)[O-])C(C)N(C(=O)/C=C/c1ccccc1)CC3 (stereo unspecified) |  | 29.2 µM |  | > 100 µM |  |  |  | 7.01 µM |  | > 100 µM |  | > 100 µM |  | > 100 µM |  |  |  | > 100 µM |  | > 100 µM |
| CN1CCN(c2ccc(NC3=C(Cl)C(=O)c4ncccc4C3=O)cc2C(F)(F)F)CC1 | 18.8 µM | 38 µM | 7.51 µM | 20.8 µM | 1.69 µM | 3.27 µM | 1.79 µM | 4.73 µM | 2340 nM | 5.56 µM | 1630 nM | 3.39 µM | 3.14 µM | 12.4 µM |  |  | 13.6 µM | 26.8 µM | 4.45 µM | 17 µM |
| COc1cc2c3c(n(CCCn4cccn4)c(=O)c2cc1OC)-c1cc2c(cc1C3=O)OCO2 | 2.87 µM | > 100 µM | 7.13 µM | 64 µM | 1.47 µM | 15.9 µM |  |  | 2560 nM | 25.4 µM | 2070 nM | 63.7 µM | 2.83 µM | 54.7 µM | 4.13 µM | > 100 µM | 1.08 µM | > 100 µM | 0.724 µM | > 40.4 µM |
| COc1cc2c(cc1OCCN1C(=O)c3cccc4cccc(c34)C1=O)N=C[C@@H]1CCCN1C2=O | 17.7 µM | 17.1 µM and 53.1 µM | 14.5 µM | 15.6 µM and 27.6 µM | 20.6 µM | 14.5 µM and 45.4 µM |  |  | 14400 nM | 16.9 µM and 29.8 µM | 1580 nM | 4.51 µM and 10.2 µM | 16.6 µM | 17.1 µM and 36.7 µM |  | 46.5 µM | 37.7 µM | 30.2 µM and > 100 µM | 14.2 µM | 12.6 µM and > 100 µM |
| COC(=O)c1c(C(=O)OC)c(C(=O)OC)c(C(=O)OC)c1C(=O)OC |  | > 100 µM |  | > 100 µM |  |  |  | > 100 µM |  | > 100 µM |  | > 100 µM |  | > 100 µM |  | > 100 µM |  | > 100 µM |  | > 100 µM |
| CC(=O)OC1CC(C)c2c1ncnc2N1CCN(C(=O)OC(C)(C)C)CC1 (stereo unspecified) | 44.2 µM | > 100 µM | 69.6 µM | > 100 µM | 38.1 µM | > 100 µM | 25.9 µM | 83.6 µM | 37100 nM | 88.5 µM | 22600 nM | 47.2 µM | 54.3 µM | > 100 µM | 53.7 µM | > 100 µM | 78.5 µM | > 100 µM |  |  |
| Cc1ccc(S(=O)(=O)NC(C)C(=O)O)cc1 (stereo unspecified) |  | > 100 µM |  | > 100 µM |  |  |  | > 100 µM |  | > 100 µM |  | > 100 µM |  | > 100 µM |  | > 100 µM |  | > 100 µM |  | > 100 µM |
| [O-]c1c(-c2ccccc2)[se]c(-c2ccccc2)[n+]1-c1ccccc1 |  | 35.9 µM |  | 19.3 µM |  | 11.4 µM |  | 5.51 µM |  | 52.9 µM |  | 8.42 µM |  | 13.7 µM |  | 39.2 µM |  | 20.2 µM |  |  |
| CC(=O)c1ccc(NCn2nc(-c3ccccc3O)oc2=S)cc1 | 37.8 µM | > 100 µM | 27.8 µM | 66.2 µM | > 100 µM | > 100 µM | > 100 µM | > 100 µM | 47000 nM | > 100 µM | > 100000 nM | > 100 µM | > 100 µM | > 100 µM |  |  | > 100 µM | > 100 µM | 50.8 µM | > 100 µM |
